# Measured values taken from patent US20080103195A1, “COMPOUNDS FROM ANTRODIA CAMPHORATA FOR INHIBITING THE GROWTH OF CANCER TUMOR CELLS” (priority 2006, published 2008).
# Columns and labels:
# [1] = tested on: Hep 3B human liver cancer cells; test: In vitro assay of anti-tumor activity of liver cancer (MTT assay); format: cell-based; details: Hep3B, 48 h
# Protocol: (§1) According to anti-tumor agents screening model of National Cancer Institute (NCI) of the United States National Institutes of Health, the assay is processed by adding 4,7-dimethoxy-5-methy-1,3-benzodioxole into the culture medium of Hep 3B and Hep G2 human liver cancer tumor cells respectively.
# (§2) Doses of ethyl alcohol extract of Antrodia camphorate (the control group) were respectively 30, 10, 3, 1, 0.3, 0.1, and 0.03 μg/ml for each well and 4,7-dimethoxy-5-methy-1,3-benzodioxole (the experimental group) were respectively 30, 10, 3, 1, 0.3, 0.1, and 0.03 μg/ml for each well incubated at 37° C., 5% CO2 for 48 hours. 2.5 mg/ml MTT dye is added to each well without light and incubated for 4 hours, then treated with 100 μl lysis buffer to stop the reaction.
# [2] = tested on: Hep G2 human liver cancer cells; test: as above; format: cell-based; details: HepG2, 48 h
# Protocol: as §1, §2
# [3] = tested on: LNCaP human prostate cancer cells; test: In vitro activity assay of adjuvant treatment of prostate cancer tumor cells using Taxol (MTT assay); format: cell-based
# Protocol: (§3) Doses of 4,7-dimethoxy-5-methy-1,3-benzodioxole were 30, 10, 3, 1, 0.3, 0.1, and 0.03 μg/ml (the experimental group) and 0 μg/ml of 4,7-dimethoxy-5-methy-1,3-benzodioxole (the control group) for each well incubated at 37° C., 5% CO2 for 48 hours. 2.5 mg/ml MTT dye is added to each well without light and incubated for 4 hours, then treated with 100 μl lysis buffer to stop the reaction.
# [4] = tested on: MDA-MB-231 human breast cancer cells; test: In vitro assay of anti-tumor activity of breast cancer (MTT assay); format: cell-based; details: MDA-MB-231, 48 h
# Description: (§4) According to anti-tumor agents screening model of National Cancer Institute (NCI) of the United States National Institutes of Health, the assay is processed by adding 4,7-dimethoxy-5-methy-1,3-benzodioxole into the culture medium of MCF-7 human tumor cells and MDA-MB-231 human tumor cells respectively. The assay of tumor cell viability can be evaluated by using the conventional MTT assay, and MCF-7 and MDA-MB-231 are human breast cancer tumor cell lines.
# (§5) MTT assay is a conventional assay used to analyze the cell proliferation, percentage of viable cells, and cytotoxicity. MTT (3-(4,5-dimethylthiazole-2-yl)-2,5-diphenyl tetrazolium bromide) is a yellow dye, and is metabolized only in living cells by the mitochondrial succinate-tetrazolium reductase system to produce blue violet insoluble formazan products, thereby providing a measure of the number of viable cells upon generation of formazan products in viable cells.
# as §2, with “camphorata” for “camphorate”
# [5] = tested on: MCF-7 human breast cancer cells; test: as above; format: cell-based; details: MCF7, 48 h
# Description: as §4, §5
# as §2, with “camphorata” for “camphorate”
# [6] = tested on: DU-145 human prostate cancer cells; test: In vitro assay of anti-tumor activity of prostate cancer (MTT assay); format: cell-based; details: DU-145, 48 h
# Protocol: (§6) According to anti-tumor agents screening model of National Cancer Institute (NCI) of the United States National Institutes of Health, the assay is processed by adding 4,7-dimethoxy-5-methy-1,3-benzodioxole into the culture medium of LNCaP and DU-145 human prostate cancer tumor cells respectively.
# as §2, with “camphorata” for “camphorate”, “1,” for “1, 0.3, 0.1,”, “0.3” for “0.03”
# [7] = tested on: LNCaP human prostate cancer cells; test: as above; format: cell-based; details: 48 h
# Protocol: as §6
# as §2, with “camphorata” for “camphorate”, “1,” for “1, 0.3, 0.1,”, “0.3” for “0.03”
# [8] = tested on: Hep 3B human liver cancer cells; details: 0.0043 μg/ml Lovastatin alone (control group)
# Protocol: (§7) First, Hep 3B human liver cancer cells and Hep G2 human liver cancer cells were respectively cultured in culture medium supplemented with fetal bovine serum for 24 hours. The proliferative cells were washed with PBS once, and treated with one-fold trypsin/EDTA solution. After centrifuged at 1,200 rpm for 5 min, the supernatant was removed and the cell pellet was transferred to new tubes and treated with 10 ml medium to suspend the cells again. Before the assay, the Hep 3B cell line was treated with 0.0043 μg/ml Lovastatin for 72 hours and the Hep G2 cell line was treated with 0.0017 μg/ml Taxol for 72 hours, and then plated in 96 well microplates. Doses of 4,7-dimethoxy-5-methy-1,3-benzodioxole were 30, 10, 3, 1, 0.3, 0.1, and 0.03 μg/ml (the experimental group) and 0 μg/ml of 4,7-dimethoxy-5-methy-1,3-benzodioxole (the control group) for each well incubated at 37° C., 5% CO2 for 48 hours. 2.5 mg/ml MTT dye is added to each well without light and incubated for 4 hours, then treated with 100 μl lysis buffer to stop the reaction. Subsequently, absorption was measured on an enzyme immunoassay analyzer at 570 nm for the measurement of viable cell number. The concentration of the drug measured at 50% of the cell death (i.e. IC50 value) was determined and calculated.
# [9] = tested on: MDA-MB-231 human breast cancer cells; test: In vitro activity assay of adjuvant treatment of breast cancer tumor cells using Taxol (MTT assay); format: cell-based; details: MDA-MB-231, 0.0017 μg/ml Taxol alone (control group, 0 μg/ml benzodioxole)
# Protocol: as §3
# [10] = tested on: MCF-7 human breast cancer cells; test: as above; format: cell-based; details: MCF-7, 0.0017 μg/ml Taxol alone (control group, 0 μg/ml benzodioxole)
# Protocol: as §3
# [11] = tested on: DU-145 human prostate cancer cells; test: In vitro activity assay of adjuvant treatment of prostate cancer tumor cells using Taxol (MTT assay); format: cell-based; details: DU-145, 0.0043 μg/ml Taxol alone (control group)
# Protocol: as §3
# [12] = tested on: Hep G2 human liver cancer cells; details: Hep G2, 0.0017 μg/ml Taxol alone (control group)
# Protocol: as §7
smiles,measurement,setting,value
"COc1cc(C)c(OC)c2c1OCO2 [4,7-dimethoxy-5-methy-1,3-benzodioxole]",IC50,[1],0.016 µg/mL
same,IC50,[2],2.46 µg/mL
same,IC50,[3]; Homo sapiens,1.16 µg/mL
same,IC50,[4],0.992 µg/mL
same,IC50,[5],1.72 µg/mL
same,IC50,[6],2.21 µg/mL
same,IC50,[7],4.46 µg/mL
CC[C@H](C)C(=O)O[C@H]1C[C@@H](C)C=C2C=C[C@H](C)[C@H](CC[C@@H]3C[C@@H](O)CC(=O)O3)[C@H]21 [Lovastatin],The ratio of viable cells (%),[8],69 ± 1%
CC(=O)O[C@H]1C(=O)[C@@]2(C)[C@H]([C@H](OC(=O)c3ccccc3)[C@]3(O)C[C@H](OC(=O)[C@H](O)[C@@H](NC(=O)c4ccccc4)c4ccccc4)C(C)=C1C3(C)C)[C@]1(OC(C)=O)CO[C@@H]1C[C@@H]2O [Taxol],The ratio of viable cells (%),[9],86 ± 1%
same,The ratio of viable cells (%),[10],69 ± 1%
same,The ratio of viable cells (%),[11],71 ± 1%
same,The ratio of viable cells (%),[3]; 0.0017 μg/ml Taxol alone (control group),55 ± 1%
same,The ratio of viable cells (%),[12],86 ± 1%
